Assay results from patent publication US20110305637A1, “RADIOLABELLED PDE10 LIGANDS” (Janssen Pharmaceutica N.V., priority 2009, published 2011).
Where “and” joins values, the source holds several entries; their conditions need not be identical. Equal values may be shown once.

Experiment: Biodistribution study in male Wistar rats
Assay type: in vivo, rat
Method: (§1) The biodistribution study of [^18F]B-1 was carried out in male Wistar rats (body weight 250-350 g) at 2 min, 30 min and 60 min post injection (p.i.) (n=3/time point). Rats were injected with about 1.1 MBq of the tracer via tail vein under anesthesia (2.5% Isoflurane in O2 at 1 L/min flow rate) and sacrificed by decapitation at above specified time points. Blood and major organs were collected in tared tubes and weighed. The radioactivity in blood, organs and other body parts was measured using an automated gamma counter The distribution of radioactivity in different parts of the body at different time points p.i. of the tracer was calculated and expressed as percentage of injected dose (% ID), and as percentage of injected dose per gram tissue (% ID/g) for the selected organs. % ID is calculated as cpm in organ/total cpm recovered. For calculation of total radioactivity in blood, blood mass was assumed to be 7% of the body mass.
as §1, with “[^18F]B-2” for “[^18F]B-1”, “270-340” for “250-350”

[1] = 2 min p.i., % ID/g values normalized for the body weight
[2] = 2 min p.i., normalized for body weight
[3] = 30 min p.i., % ID/g values normalized for the body weight

## [18F]CCCn1cc(-c2ccncc2)c(-c2ccc(OCc3ccc4ccccc4n3)cc2)n1 [[^18F]B-1]
2 min p.i.
  % ID in Carcass: 27.70 ± 0.7 % ID
  % ID in Cerebellum: 0.096 ± 0.0 % ID
  % ID in Cerebrum total: 0.4 % ID and 0.407 ± 0.1 % ID
  % ID in Cortex: 0.072 ± 0.01 % ID
  % ID in Heart: 0.87 ± 0.1 % ID
  % ID in Hippocampus: 0.013 ± 0.00 % ID
  % ID in Intestines: 8.89 ± 0.5 % ID
  % ID in Kidneys: 5.31 ± 0.7 % ID
  % ID in Liver: 48.20 ± 1.8 % ID
  % ID in Lungs: 2.79 ± 0.6 % ID
  % ID in Rest of cerebrum: 0.307 ± 0.05 % ID
  % ID in Spleen + Pancreas: 1.63 ± 0.1 % ID
  % ID in Stomach: 1.74 ± 0.2 % ID
  % ID in Striatum: 0.015 % ID and 0.015 ± 0.00 % ID
  % ID in Urine: 0.09 ± 0.0 % ID
  % ID/g in Blood: 0.19 ± 0.02 % ID/g
  % ID/g in Cerebellum: 0.39 ± 0.06 % ID/g
  % ID/g in Cerebrum + Cerebellum: 0.33 ± 0.05 % ID/g
  % ID/g in Cerebrum total: 0.31 ± 0.05 % ID/g
  % ID/g in Cortex: 0.40 ± 0.11 % ID/g
  % ID/g in Heart: 1.06 ± 0.20 % ID/g
  % ID/g in Liver: 3.79 ± 0.19 % ID/g
  % ID/g in Lungs: 2.36 ± 0.75 % ID/g
  % ID/g in Rest of cerebrum: 0.30 ± 0.04 % ID/g
  % ID/g in Spleen + Pancreas: 1.18 ± 0.17 % ID/g
[1]
  striatum/blood ratio: 2.1
  striatum/cortex ratio: 1.0
  striatum/hippocampus ratio: 2.0
2 min p.i., % of injected dose
  total brain uptake of the tracer: ~0.5%
[2]
  % ID/g × kg in Blood: 0.05 ± 0.00 % ID/g × kg
  % ID/g × kg in Cerebellum: 0.100 ± 0.02 % ID/g × kg
  % ID/g × kg in Cerebrum + Cerebellum: 0.08 ± 0.01 % ID/g × kg
  % ID/g × kg in Cerebrum total: 0.080 ± 0.01 % ID/g × kg
  % ID/g × kg in Cortex: 0.103 ± 0.03 % ID/g × kg
  % ID/g × kg in Heart: 0.27 ± 0.05 % ID/g × kg
  % ID/g × kg in Hippocampus: 0.052 ± 0.01 % ID/g × kg
  % ID/g × kg in Kidneys: 0.57 ± 0.07 % ID/g × kg
  % ID/g × kg in Liver: 0.97 ± 0.05 % ID/g × kg
  % ID/g × kg in Lungs: 0.60 ± 0.19 % ID/g × kg
  % ID/g × kg in Rest of cerebrum: 0.077 ± 0.01 % ID/g × kg
  % ID/g × kg in Spleen + Pancreas: 0.30 ± 0.04 % ID/g × kg
  % ID/g × kg in Striatum: 0.102 ± 0.01 % ID/g × kg
30 min p.i.
  % ID in Blood: 2.12 ± 0.1 % ID
  % ID in Carcass: 25.24 ± 1.7 % ID
  % ID in Cerebellum: 0.021 ± 0.0 % ID
  % ID in Cerebrum total: 0.158 ± 0.01 % ID
  % ID in Cortex: 0.018 ± 0.00 % ID
  % ID in Heart: 0.22 ± 0.0 % ID
  % ID in Hippocampus: 0.004 ± 0.00 % ID
  % ID in Intestines: 14.44 ± 3.0 % ID
  % ID in Kidneys: 1.55 ± 0.1 % ID
  % ID in Liver: 49.64 ± 5.3 % ID
  % ID in Lungs: 1.81 ± 0.0 % ID
  % ID in Rest of cerebrum: 0.122 ± 0.00 % ID
  % ID in Spleen + Pancreas: 0.42 ± 0.1 % ID
  % ID in Stomach: 4.60 ± 0.6 % ID
  % ID in Striatum: 0.014 ± 0.00 % ID
  % ID in Urine: 0.61 ± 0.3 % ID
  % ID/g in Blood: 0.12 ± 0.01 % ID/g
  % ID/g in Cerebellum: 0.09 ± 0.01 % ID/g
  % ID/g in Cerebrum + Cerebellum: 0.12 ± 0.01 % ID/g
  % ID/g in Cerebrum total: 0.12 ± 0.01 % ID/g
  % ID/g in Cortex: 0.11 ± 0.02 % ID/g
  % ID/g in Heart: 0.26 ± 0.02 % ID/g
  % ID/g in Hippocampus: 0.08 ± 0.01 % ID/g
  % ID/g in Kidneys: 0.64 ± 0.04 % ID/g
  % ID/g in Liver: 4.00 ± 0.37 % ID/g
  % ID/g in Lungs: 1.38 ± 0.11 % ID/g
  % ID/g in Rest of cerebrum: 0.12 ± 0.01 % ID/g
  % ID/g in Spleen + Pancreas: 0.27 ± 0.01 % ID/g
  % ID/g in Striatum: 0.41 ± 0.00 % ID/g
[3]
  striatum/blood ratio: 3.5
  striatum/cerebellum ratio: 4.6
  striatum/cortex ratio: 3.9
  striatum/hippocampus ratio: 5.1
